Reference: patent US12286632B2, “Rationally-designed synthetic peptide shuttle agents for delivering polypeptide cargos from an extracellular space to the cytosol and/or nucleus of a target eukaryotic cell, uses thereof, methods and kits relating to same” (Feldan Bio Inc., priority 2016, dated 2025)
Ends that are not written are not given here. Peptide text beside a SMILES is read from it.

Key:
in vitro [1] = conditions: human, HeLa cells
HeLa cells [2] = experiment: Plasmid DNA (pEGFP-C1) transfection by peptides (% cells with GFP signal, cell viability); conditions: DNA transfection in HeLa cells using peptides; pEGFP-C1 plasmid
HeLa cells [3] = experiment: GFP-NLS protein transduction assay (flow cytometry: Pos cells %, viability %, relative fluorescence intensity; microscopy); conditions: for Cell viability (%) (±St. Dev.; n = 3) / Cell viability (%) (± St Dev.; n = 3): Protocol B, HeLa, GFP-NLS 5 μM; for Cell viability (%) (±St. Dev.; n = 3): shuttle 50 μM, 10 seconds; for Cell viability (%) (± St Dev.; n = 3): Table 10.2, shuttle 10 μM
in vitro [4] = conditions: human, HeLa cells, Cell viability (%) (±St Dev.; n = 3)
B2M genomic DNA sequence = experiment: T7E1 DNA cleavage assay / % INDELs after CRISPR/Cas9-NLS or CRISPR/Cpf1-NLS delivery (HeLa, THP-1, NK, T cells); format: cell-based, Human; conditions: peptide 10 μM for 1 h in HeLa cells; CRISPR/Cas9 2.5 μM
Text: The T7 endonuclease I (T7E1) can be used to detect on-target CRISPR/Cas genome editing events in cultured cells. As an overview, genomic DNA from target cells is amplified by PCR. The PCR products are then denatured and reannealed to allow heteroduplex formation between wild-type DNA and CRISPR/Cas-mutated DNA. T7E1, which recognizes and cleaves mismatched DNA, is used to digest the heteroduplexes. The resulting cleaved and full-length PCR products are visualized by gel electrophoresis.
The T7E1 assay was performed with the Edit-R™ Synthetic crRNA Positive Controls (Dharmacon #U-007000-05) and the T7 Endonuclease I (NEB, Cat #M0302S). After the delivery of the CRISPR/Cas complex, cells were lysed in 100 μL of Phusion™ High-Fidelity DNA polymerase (NEB #M0530S) laboratory with additives. The cells were incubated for 15-30 minutes at 56° C., followed by deactivation for 5 minutes at 96° C. The plate was briefly centrifuged to collect the liquid at bottom of the wells. 50-μL PCR samples were set up for each sample to be analyzed. The PCR samples were heated to 95° C. for 10 minutes and then slowly (>15 minutes) cooled to room temperature. PCR product (-5 μL) was then separated on an agarose gel (2%) to confirm amplification. 15 μL of each reaction was incubated with T7E1 nuclease for 25 minutes at 37° C. Immediately, the entire reaction volume was run with the appropriate gel loading buffer on an agarose gel (2%).
Cas9-NLS recombinant protein was prepared as described in Example 13.1. Cpf1-NLS recombinant protein was prepared as described in Example G.2. A mix composed of a Cas9-NLS recombinant protein with its respective crRNAltracrRNA, or a Cpf1-NLS recombinant protein with its respective single guide crRNA(s) (see below) targeting a nucleotide sequence of the B2M gene, was co-incubated with different concentrations of the peptides FSD10, FSD18, FSD19, FSD21, FSD22, or FSD23 and incubated with HeLa, THP-1 or NK cells for 90 sec in PBS, or for 1 h in medium without serum, or for 48 h in medium with serum, using the transduction protocols as generally described in Example 3.1a. Cells were then washed with PBS and harvested to proceed with the T7E1 protocol assay as described in Example 13.4.
FIGS. 52A-52D show the results of the cleavage of the targeted genomic B2M DNA sequence after the delivery of CRISPR/Cpf1 (1.33 μM) with crRNA−1 or crRNA−2 (2 μM) in the absence (“-ctrl”) or in the presence of the peptides FSD10, FSD18, FSD19, FSD21 or FSD23 used at different concentrations, exposure times, and in different types of cells: THP-1 (FIG. 52A), and NK (FIGS. 52B, 52C, 52D), after separation by agarose gel electrophoresis. […] Gel lanes were loaded in duplicate. Thin dashed arrows indicate the bands corresponding to the target gene, and thick solid arrows indicate the bands corresponding to the cleavage products of this target gene, which indicate the successful transduction of fully functional CRISPR genome editing complexes. We used a Bio-Rad ImageLab™ software (Version 5.2.1, Bio-Rad, http://www.bio-rad.com/en-ca/product/image-lab-software?tab=Download) to quantify the relative signal intensities of each of the different bands directly on the gels. The sum of all the bands in a given lane corresponds to 100% of the signal, and the numerical value in italics at the bottom of each lane is the sum of the relative signals (%) of only the two cleavage product bands (thick solid arrows). No cleavage product bands were found in the negative controls (“-ctrl”, i.e., to cells that were exposed to CRISPR system in the absence of FSD peptide).
Cas9-NLS recombinant protein was prepared as described in Example 13.1. Cpf1-NLS recombinant protein was prepared as described in Example G.2. […]

in vitro [5] = conditions: human, THP-1 cells
Protocol: (§1) One day before the transduction assay was performed, cells in exponential growth phase were harvested and plated in a 96-well plate (20,000 cells per well). The cells were incubated overnight in appropriate growth media containing FBS (see Example 1). The next day, in separate sterile 1.5 mL tubes, cargo protein at the indicated concentration was pre-mixed (pre-incubated) for 1 or 10 min (depending on the protocol) at 37° C. with the peptide(s) to be tested shuttle agents (0.5 to 5 μM) in 50 μL of fresh medium without serum (unless otherwise specified). The media in wells was removed and the cells were washed three times with freshly prepared phosphate buffered saline (PBS) previously warmed at 37° C. The cells were incubated with the cargo protein/shuttle agent mixture at 37° C. for the indicated time (e.g., 1, 5 or 60 min). After the incubation, the cells were quickly washed three times with freshly prepared PBS and/or heparin (0.5 mg/mL) previously warmed at 37° C. The washes with heparin were required for human THP-1 blood cells to avoid undesired cell membrane-bound protein background in subsequent analyses (microscopy and flow cytometry). The cells were finally incubated in 50 μL of fresh medium with serum at 37° C. before analysis.
(§2) One day before the transduction assay was performed, suspension cells in exponential growth phase were harvested and plated in a 96-well plate (20,000 cells per well). The cells were incubated overnight in appropriate growth media containing serum (see Example 1). The next day, in separate sterile 1.5-mL tubes, peptides were diluted in sterile distilled water at room temperature (if the cargo is or comprised a nucleic acid, nuclease-free water was used). Cargo protein(s) were then added to the peptides and, if necessary, sterile PBS or cell culture medium (serum-free) was added to obtain the desired concentrations of shuttle agent and cargo in a sufficient final volume to resuspend the cells (e.g., 10 to 100 μL per well in a 96-well plate). The shuttle agent/peptide was then immediately used for experiments. At least three controls were included for each experiment, including: (1) peptide alone (e.g., at highest concentration tested); (2) cargo alone; and (3) without any cargo or shuttle agent. The cells were centrifuged for 2 minutes at 400g, the medium was then removed and the cells were resuspended in PBS previously warmed at 37° C. The cells were centrifuged again 2 minutes at 400g, the PBS removed, and the cells were resuspended with the cargo protein/peptide mixture at 37° C. for the desired length of time. After that, 200 μL of complete medium was added directly on the cells. Cells were centrifuged for 2 minutes at 400g and the medium was removed. The pellet was resuspended and washed in 200 μL of PBS previously warmed at 37° C. After another centrifugation, the PBS was removed and the cells were resuspended in 50 μL of trypsin-EDTA solution for 2 min. 200 of complete medium was directly added and cells were centrifuged for 2 minutes at 400g. The medium was removed and the cells were resuspended in 200 μL of complete medium.
(§3) The cells incubated in 50 μL of fresh medium were directly observed by microscopy (Bright-field and fluorescence) at different power fields (4× to 40×). The cells were observed using a CoolSNAP-PRO™ camera (Series A02D874021) and images were acquired using the Image-Proplus™ software.
(§4) The fluorescence of GFP was quantified using flow cytometry (Accuri C6, Becton, Dickinson and Company (BD)).

THP-1 cells [6] = experiment: HOXB4-WT transduction: target gene mRNA by real-time PCR (Fold over control) and total RNA (ng/μL) as marker for cell viability; format: cell-based, human; conditions: for Total RNA in ng/μL (mean ± St. Dev): peptide alone 1 μM, HOXB4-WT 0 μM, marker for cell viability
Protocol: Control and treated cells are transferred to separate sterile 1.5-mL tubes and centrifuged for 5 minutes at 300g. The cell pellets are resuspended in appropriate buffer to lyse the cells. RNAase-free 70% ethanol is then added followed by mixing by pipetting. The lysates are transferred to an RNeasy™ Mini spin column and centrifuged 30 seconds at 13000 RPM. After several washes with appropriate buffers and centrifugation steps, the eluates are collected in sterile 1.5-mL tubes on ice, and the RNA quantity in each tube is then quantified with a spectrophotometer. For DNase treatment, 2 μg of RNA is diluted in 15 μL of RNase-free water. 1.75 μL of 10X DNase buffer and 0.75 μL of DNase is then added, followed by incubation at 37° C. for 15 minutes. For reverse transcriptase treatment, 0.88 μL of EDTA […] is added, followed by incubation at 75° C. for 5 minutes. In a PCR tube, […] of DNase-treated RNA is mixed with 4 μL of iScript™ Reverse transcription Supermix (5X) and […] of nuclease-free water. The mix is incubated in a PCR machine with the following program: 5 min at 25° C., 30 min at 42° C. and 5 min at 85° C. Newly synthesized cDNA is transferred in sterile 1.5-mL tubes and diluted in 2 μL of nuclease-free water. 18 μL per well of a qPCR machine (CFX-96™) mix is then added in a PCR plate for analysis.
Briefly, THP-1 cells were plated at 30 000 cells/well one day before transduction. HOXB4-WT recombinant protein ([…]; Example 14.1) was co-incubated with different concentrations of His-CM18-PTD4 ([…]) and then exposed to THP-1 cells for 2.5 hours in the presence of serum. The cells were subjected to real time-PCR analysis as described in Example 14.2 to measure the mRNA levels of a target gene as a marker for HOXB4 activity, which was then normalized to the target gene mRNA levels detected in the negative control cells (no treatment), to obtain a “Fold over control” value. Total RNA levels (ng/μL) were also measured as a marker for cell viability.
Briefly, THP-1 cells were plated at 30 000 cells/well one day before the first time course experiment. HOXB4-WT recombinant protein (1.5 μM; Example 14.1) was co-incubated with His-CM18-PTD4 (0.8 μM) and then exposed to THP-1 cells for 0, 2.5, 4, 24 or 48 hours in presence of serum. The cells were subjected to real time-PCR analysis as described in Example 14.2 to measure mRNA levels of a target gene as a marker for HOXB4 activity, which was then normalized to the target gene mRNA levels detected in the negative control cells (no treatment), to obtain a “Fold over control” value. Total RNA levels (ng/μL) were also measured as a marker for cell viability.
Briefly, THP-1 cells were plated at 30 000 cells/well one day before the first time course experiment. HOXB4-WT recombinant protein (0.3 μM; Example 14.1) was co-incubated with His-CM18-PTD4 (0.8 μM) and then exposed to THP-1 cells for 0, 0.5, 1, 2, 2.5, 3 or 4 hours in presence of serum. The cells were subjected to real time-PCR analysis as described in Example 14.2 to measure mRNA levels of a target gene as a marker for HOXB4 activity, which was then normalized to target gene mRNA levels detected in the negative control cells (no treatment), to obtain a “Fold over control” value. Total RNA levels (ng/μL) were also measured as a marker for cell viability.
Briefly, THP-1 cells were plated at 30 000 cells/well one day before the first time course experiment. HOXB4-WT recombinant protein (1.5 μM; Example 14.1) co-incubated with the shuttle agents His-CM18-PTD4, TAT-KALA, EB1-PTD4, His-C(LLKK)3C-PTD4 and His-CM18-PTD4-His at 0.8 μM, and then exposed to THP-1 cells for 2.5 hours in presence of serum. The cells were subjected to real time-PCR analysis as described in Example 14.2 to measure mRNA levels of a target gene as a marker for HOXB4 activity, which was then normalized to target gene mRNA levels detected in the negative control cells (no treatment), to obtain a “Fold over control” value. […]

THP-1 cells [7] = experiment: GFP-NLS protein transduction assay (flow cytometry: Pos cells %, viability %, relative fluorescence intensity; microscopy); conditions: Protocol C, THP-1, 1 μM shuttle, 5 μM GFP-NLS
Protocol: as §1, §2, §3, §4

Compound: CC(C)C[C@H](NC(=O)[C@H](CC(C)C)NC(=O)[C@H](CCCCN)NC(=O)[C@H](CCCCN)NC(=O)[C@H](CC(C)C)NC(=O)[C@H](CC(C)C)NC(=O)[C@H](CCCCN)NC(=O)[C@H](CCCCN)NC(=O)[C@H](CC(C)C)NC(=O)[C@H](CC(C)C)NC(=O)[C@@H](N)CS)C(=O)N[C@@H](CCCCN)C(=O)N[C@@H](CCCCN)C(=O)N[C@@H](CS)C(=O)O [C(LLKK)3] (H-CLLKKLLKKLLKKC-OH; N-terminus and C-terminus assumed)
- viability (in vitro [1]): 81.7 ± 2.34%
- Mean % cells with GFP signal (±St. Dev.; n = 3) (HeLa cells [2]): 0.00 ± 0.00%

Compound: HHHHHHVLKLWSRILKAFTQGRRMAAKRAKCNHHHHHH [FSD22]
- Mean % cells with GFP signal (±St. Dev.; n = 3) (HeLa cells [3]; Table B2, HeLa cells, GFP-NLS cargo): 45.09 ± 3.95%
- viability (in vitro [4]): 80.2 ± 7.21%
- delivery of CRISPR/Cas9 complex, cleavage of genomic B2M exon 2 (in words) (B2M genomic DNA sequence): successful delivery of the CRISPR genome-editing complexes to the nucleus

Compound: HHHHHHVWKLFWTLLAAIYGRGKARQKRAKRQARG [FSD25]
- viability (in vitro [4]): 71.7 ± 5.08%
- viability at 15 s, 5 µM (in vitro [5]): 66.9 ± 5.17%
- viability at 0.5 min, 2 µM (in vitro [5]): 79.7 ± 6.52%

Compound: HOXB4-WT
- Fold over control (mean ± St. Dev) (THP-1 cells [6]; Table 14.1, THP-1, 2.5 hours, serum, shuttle 0 μM, HOXB4-WT 1.5 μM (alone)): 4.3 ± 0.1
- Fold over control (mean ± St. Dev) (THP-1 cells [6]; Table 14.2, THP-1, serum, shuttle 0 μM, HOXB4-WT 1.5 μM (alone), exposure 2.5 h): 3.4 ± 0.3
- Fold over control (mean ± St. Dev) (THP-1 cells [6]; Table 14.3, THP-1, serum, shuttle 0.8 μM, HOXB4-WT 0 μM (alone), exposure 2.5 h): 1 ± 0.14
- Fold over control (mean ± St. Dev) (THP-1 cells [6]; Table 14.4, THP-1, serum, shuttle 0.8 μM, HOXB4-WT 0 μM (alone), exposure 2.5 h): 1 ± 0.11

Compound: HOXB4-WT alone
- Fold over control (mean ± St. Dev) (THP-1 cells [6]; THP-1 cells, HOXB4-WT alone 1.5 μM, no peptide, target gene mRNA by real time-PCR): 2.5 ± 0.2

Compound: KWKLARAFARAIKKLGGSGGGSYARALRRQARTG [FSD10 alone]
- Total RNA in ng/μL (mean ± St. Dev) (THP-1 cells [6]; THP-1 cells): 181 ± 10.7 ng/µL

Compound: LLKLWSRLLKLWTQGGSGGGSGRRLKAKRAKA [FSD18 alone]
- Total RNA in ng/μL (mean ± St. Dev) (THP-1 cells [6]; THP-1 cells): 157 ± 3.9 ng/µL

Compound: YGRKKRRQRRRCWEAKLAKALAKALAKHLAKALAKALKACEA (cysteines drawn unpaired) [TAT-KALA]
- Cell viability (%) (±St. Dev.; n = 3) (HeLa cells [3]; Table 10.1): 95.6 ± 4.3%
- Cell viability (%) (± St Dev.; n = 3) (HeLa cells [3]; incubation 1 min.): 93.5 ± 2.7%
- Cell viability (%) (± St Dev.; n = 3) (HeLa cells [3]; incubation 2 min.): 92.1 ± 3.1%
- Cell viability (%) (± St Dev.; n = 3) (HeLa cells [3]; incubation 5 min.): 86 ± 4.4%
- Cell viability (%) (±St. Dev.; n = 3) (HeLa cells [3]; Table 10.3b): 95.6 ± 4.3%
- Cell viability (%) (±St. Dev.; n = 3) (THP-1 cells [7]; incubation 15 sec): 84.6 ± 2.7%
- Cell viability (%) (±St. Dev.; n = 3) (THP-1 cells [7]; incubation 30 sec): 70.3 ± 3.2%
- Cell viability (%) (±St. Dev.; n = 3) (THP-1 cells [7]; incubation 60 sec): 82.7 ± 1.4%
- Cell viability (%) (±St. Dev.; n = 3) (THP-1 cells [7]; incubation 120 sec): 46.3 ± 4.9%
